Data published in US6653331B2, “Targeted drug delivery using sulfonamide derivatives” (Pharmacia & Upjohn Company, priority 1996, dated 2003).

How the values were obtained:
GST = assay: Incubation with GST/GSH, cleavage of the sulfonamide bond; type: biochemical
Experimental: The protected title compound of formula J-1 is deprotected by GST/GSH under mild conditions. Incubations of 100 μM of this compound and 500 μM GSH with GST (0.5 mg protein /mL) are carried out in 100 mM phosphate buffer, pH 7.4 for 1 hour, at 37° C. in a volume of 0.5 mL. The cleavage of sulfonamide bond is essentially 100% complete after one hour incubation to yield the compound of formula J-2.
(§1) The protected title compound of J-1 is cleaved upon in-vitro incubation with GST/GSH. Enzymatic cleavage of J-1 yields sulfite (SO3^2−), azide (N3^−), and the glutathione-(p-nitrobenzene) conjugate.

rat hepatocytes = assay: In-vitro incubation with rat hepatocytes; type: in vitro ADME
Source text: (§2) The following observations were made during in-vivo (animal models) and in-vitro (cell cultures) studies of the metabolic disposition of the title compound.

human hepatocytes = assay: In-vitro incubation with human hepatocytes; type: in vitro ADME
Source text: as §2

CACO-2 cells = assay: Metabolism in CACO-2 cell culture; type: in vitro ADME, human
Experimental: as §2, §1

[1] = tested on: Glutathione-S-transferase (GST); assay: Sulfonamidase activity of commercial GST (isozyme mixture from rat liver); type: biochemical; settings: title compound and GSH as substrates
Experimental: Indeed, most of the activity of 10 ml of rat liver cytosol extract was retained by a GSH-Sepharose column (3.9 ml bed volume), packed and equilibrated in 20 mM Hepes buffer, pH 7.5, while the majority of the cytosolic protein was found in the effluent. After the column was washed extensively with up to 1 mM GSH, it was eluted with 5, 20, and 50 mM GSH. The various fractions were dialyzed against 20 mM Hepes buffer, pH 7.5 and tested for enzymatic activity using the title compound and GSH as substrates; the fractions were then subjected to SDS-PAGE. […] The GSH dependence for activity, the ability to purify the enzyme in a single step by a GSH affinity column, and the Mr˜25,000 pointed to Glutathione-S-transferase (GST). […] The commercial preparation was a mixture of GST isozymes purified from rat liver.

GSTA3-3 = biological target: T1, GSTA3-3 (Rattus norvegicus, UniProt P04904); assay: Sulfonamidase activity of reconstituted isozyme GSTA3-3; type: biochemical; settings: A3 homodimeric isoform of rat liver cytosol
T1 construct: The commercial preparation was a mixture of GST isozymes purified from rat liver; purchased; host or cells: rat liver (tissue-derived)
T1 sequence (P04904 2-221 limits assumed): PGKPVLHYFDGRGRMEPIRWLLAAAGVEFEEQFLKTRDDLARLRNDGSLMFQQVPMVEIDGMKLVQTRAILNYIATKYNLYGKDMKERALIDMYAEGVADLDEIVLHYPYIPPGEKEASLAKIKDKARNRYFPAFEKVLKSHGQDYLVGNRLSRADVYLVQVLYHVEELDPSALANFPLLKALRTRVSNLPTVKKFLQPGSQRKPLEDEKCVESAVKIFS
Source text: (§3) As GST exists in a myriad of isoforms, which are active as homodimers and heterodimers, the specific isozyme(s) which was responsible for sulfonamide bond cleavage in the title compound, was investigated. The commercial isozyme mixture was subjected to RP-HPLC on a C18 column (0.45×25 cm). The separation profile of the various isozymes was very similar to that of published work carried out in conditions almost identical to these conditions. […] The HPLC samples were subjected to lyophilization and refolded in an Na-phosphate buffer at pH 6.8. Alternatively, refolding was carried out by subjecting the HPLC samples to a 16 hours dialysis against Na-phosphate, pH 6.8 followed by a 6 hours dialysis against Na-phosphate, pH 7.4; the refolding process was carried out at 4° C. The title compound's sulfonamidase activity of the reconstituted isozymes was proven for the A3 homodimeric isoform (GSTA3-3), and for the M1 isoform (GSTM1-1) of rat liver cytosol. The identity of the A3 isozyme was confirmed by N-terminus amino acid sequence.

GSTM1-1 = biological target: T2, GSTM1-1 (Rattus norvegicus, UniProt P04905); assay: Sulfonamidase activity of reconstituted isozyme GSTM1-1; type: biochemical; settings: M1 isoform of rat liver cytosol
T2 construct: The commercial preparation was a mixture of GST isozymes purified from rat liver; purchased; host or cells: rat liver (tissue-derived)
T2 sequence (P04905 2-218 limits assumed): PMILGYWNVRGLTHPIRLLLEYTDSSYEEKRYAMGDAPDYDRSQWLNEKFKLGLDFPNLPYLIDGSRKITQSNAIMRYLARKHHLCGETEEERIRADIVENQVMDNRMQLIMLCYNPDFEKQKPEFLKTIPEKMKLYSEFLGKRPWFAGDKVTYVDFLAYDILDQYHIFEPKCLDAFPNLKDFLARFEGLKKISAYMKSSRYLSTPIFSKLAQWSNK
Source text: as §3

intracellular GSH = settings: cited from earlier work
[2] = In-vivo metabolic disposition in the rat
Source text: as §2

[3] = In-vivo metabolic disposition in the dog
Source text: as §2

cells = assay: Cytotoxicity in the presence of GST inhibitors; type: cell-based
Source text: Azide, N3^−, is an agent which is known to be cytotoxic to respiring cells. Azide inhibits ATP production via its interference with the cytochrome electron transport chain involved in the terminal stage of oxidative phosphorylation. The agent is markedly cytotoxic to cells relying on aerobic glycolysis/oxidative phosphorylation as a source of energy. […] Metabolism of J-1 within cells by GST releases the potent azide cytotoxin. Thus, covalent coupling of azide with the p-nitrobenzene sulfonyl moiety masks the cytotoxity of azide until cleavage by GST releases the active cytotoxin.

Compound: CCC[C@@]1(CCc2ccccc2)CC(O)=C([C@H](CC)c2cccc(NS(=O)(=O)c3ccc(C#N)cn3)c2)C(=O)O1 (relative stereo) [J-1, [R-(R*,R*)]-5-Cyano-N-[3-[1-[5,6-dihydro-4-hydroxy-2-oxo-6-(2-phenylethyl)-6-propyl-2H-pyran-3-yl]propyl]phenyl]-2-pyridine-sulfonamide]
- cleavage of sulfonamide bond (GST; 100 μM compound, 500 μM GSH, GST 0.5 mg protein/mL, 100 mM phosphate buffer pH 7.4, 1 hour, 37° C.): ~100%
- sulfonamide cleavage with release of J-2 (rat hepatocytes): underwent sulfonamide cleavage
- sulfonamide cleavage with release of J-2 (human hepatocytes): underwent sulfonamide cleavage
- sulfonamide cleavage by CACO-2 cells (CACO-2 cells; CACO-2, human colon adenocarcinoma cell line): significant sulfonamide cleavage
- rate of cleavage in CACO-2 cells compared with normal cells (CACO-2 cells; CACO-2 cells versus normal cells): markedly faster
- sulfonamidase activity of commercial GST [1]: high sulfonamidase activity
- sulfonamidase activity of reconstituted isozyme (GSTA3-3): proven
- sulfonamidase activity of reconstituted isozyme (GSTM1-1): proven

Compound: C=C(CC)C(=O)c1ccc(OCC(=O)O)c(Cl)c1Cl [Ethacrynic Acid]
- effect on intracellular GSH (intracellular GSH): deplete intracellular GSH

Compound: CCC[C@@]1(CCc2ccccc2)CC(O)=C([C@H](CC)c2cccc(N)c2)C(=O)O1 [J-2]
- circulating metabolite of the title compound in the blood [2]: major circulating metabolite
- circulating metabolite of the title compound in the blood [3]: major circulating metabolite

Compound: [R-(R*,R*)]-5-Cyano-N-[3-[1-[5,6-dihydro-4-hydroxy-2-oxo-6-(2-phenylethyl)-6-propyl-2H-pyran-3-yl]propyl]phenyl]-2-pyridine-sulfonamide [J-1]
- cleavage upon in-vitro incubation with GST/GSH (GST; yields sulfite, azide and the glutathione-(p-nitrobenzene) conjugate): cleaved
- metabolism to form the azide in the presence of known GST inhibitors (CACO-2 cells; known GST inhibitors present): blocked
- metabolism in CACO-2 cell culture (CACO-2 cells; products compared with enzymatic GST/GSH cleavage): yield the same products
- cytotoxicity (cells): relatively non-cytotoxic
